Tests used:
[1] = system: osteoclast; conditions: TNF-α at 1 ng/ml; cited from earlier work
[2] = system: muscle-derived stromal cells (MDSC); test: ALP quantification assay, osteogenic differentiation of cultured MDSC; format: cell-based, human
Excerpt: The immunoglobulin isotype controls used included IgG^1 for AbBMP-2/4 and AbTGF-β, and IgG^2B for Ab-BMP-7. B: human serum containing culture medium with the addition of recombinant human BMPs and TGF-β. C: fracture supernatant±antibody neutralization of TNF-α, IL-6 and IL-1β. The IgG^1 immunoglobulin was used as the antibody isotype control. D: human serum-containing culture medium with the addition of recombinant human TNF-α, IL-6 and IL-1β. E: Alizarin red staining for bone nodule formation after culture of 1×10^4 MDSC in human serum-containing media. […] A representative image from a single well is shown. All experiments were performed 3 times, in triplicate (n=3) using MDSC from 3 donors. Values for A-D represent a mean from 3 experiments ±SEM, using supernatant from 3 donors in A and C. *: P<0.05; **: P<0.01; ***: P<0.001; 1-way ANOVA with Bonferroni's multiple comparison test in A and C and with Dunnett's multiple comparison test against the media only control in B and D.
To investigate the fracture-derived stimulus for osteogenic differentiation of MDSC, fracture supernatants were prepared using human tibial fracture fragments obtained within 24 hours of injury (ethics approval number—COREC No: 07/Q0411/30). […] Bone fragments were obtained from either fractured tibial fragments or non-traumatically cut bone slices. These were then incubated in serum free DMEM+Glutamax media for 24 hours. The supernatant was then filter sterilised to remove any contaminants and cellular debris. MDSC were then cultured in the presence of either control media, osteogenic media, fracture supernatant or non-fracture supernatant for 7 days before lysis and quantification of ALP levels.
1×10^4 human MDSC were added to wells of a 96 well plate in triplicate. At 24 hrs the media was pipetted off and replaced by 200 μl test media. The media was changed every 3 days. At 7 days the media was removed and the cells lysed in 20 μl NP-40 lysis buffer. An ALP quantification assay (WAKO pure chemical Ltd.) was used. Calibration solution from the assay was serially diluted to make concentrations of 0.25, 0.125 and 0.0625 mmol/L. To empty wells, 20 μl of each calibration solution was added. To another, dH2O was added. 100 μl reagent (1 taBIet per 5 ml buffer solution) was added to each well, and incubated at 37° C. for 20 minutes. 80 μl stop solution was then added to each well and the plate was read using an ELISA spectrometer at 405 nm wavelength. The concentration of ALP in the test wells was extrapolated from the standard curve.

## TNFα
[1]
  decrease of osteoclast number: > 90%
[2]; Example 1, exogenous recombinant human factor added to MDSC culture (FIG. 8, 10, 12)
  ALP expression (osteogenic differentiation) in cultured MDSC: dose-dependent stimulation of ALP expression
[2]; Example 3, 7 days in human serum-containing media with recombinant human factor (FIG. 26B, 26D)
  ALP expression by MDSC: stimulated ALP expression
[2]; Example 3, 7 days, human serum-containing media (FIG. 26D)
  concentration at which ALP expression by MDSC is stimulated: up to 1 ng/ml
[2]; Example 3, TNF-α at 100 ng/ml, 7 days (FIG. 26D)
  ALP expression by MDSC relative to control: non-significantly less than the control

— US20120213826A1, “Use of Pro-Inflammatory Compounds for Promoting Bone Formation” (Imperial Innovations Limited, priority 2009, published 2012)
